Source: patent US4590189A, “Condensed pyrrolinone derivatives, their production and use” (Takeda Chemical Industries, Ltd., priority 1982, dated 1986)

Molecular target: benzodiazepine receptor
Assay: Specific benzodiazepine receptor binding: displacement of [^3 H] diazepam in crude mitochondrial fractions of rat cerebral cortex
Parameters: species or system rat (male SD strain)
Conditions: [^3 H] diazepam 2 nM, pH 7.4, 4° C., 20 minutes; read-out: IC50, effect on specific binding of [^3 H] diazepam
Procedure: The pharmacological properties of the compounds (I) of this invention were investigated by determining the substituting power thereof for radioactive diazepam from a benzodiazepine receptor.
Specific benzodiazepine receptor binding was carried out according to the method of C. Braestrup and R. F. Squiras (European J. Pharmacol., Vol. 48, 263-270, 1978). Thus, crude mitochondrial fractions obtained from the cerebral cortex of male SD strain rats 9 to 10 weeks of age were suspended in 50 mM Tris-HCl buffer (pH 7.4) and incubated with one of a series of concentrations of the test compound and [^3 H] diazepam (final concentration 2 nM) at 4° C. for 20 minutes. Then, the suspension was filtered through a Whatman GF/B glass fiber filter and the radioactivity of [^3 H] diazepam on the filter was measured by the liquid scintillation method. The concentration of the test drug which caused a 50% inhibition of [^3 H] diazepam specific binding was taken as the IC50 value.

SMILES	IC50
COc1ccc(N2C(=O)c3ccc(Cl)cc3C2CC(=O)N2CCCCC2)cc1 (stereo not drawn)	0.794 nM
O=C(CC1c2ccccc2C(=O)N1c1ccc(Cl)cc1)N1CCCCC1 (stereo not drawn)	8.86 nM
O=C(CC1C2=C(SCCS2)C(=O)N1c1ccc(Cl)cc1)N1CCCCCC1 (stereo not drawn)	5.75 nM
COc1ccc(N2C(=O)c3ccccc3C2CC(=O)N2CCCCC2)cc1 (stereo not drawn)	4.46 nM
COc1ccc(N2C(=O)C3=C(SCCS3)C2CC(=O)N2CCCCC2)cc1 (stereo not drawn)	1.05 nM
O=C(CC1C2=C(SCCS2)C(=O)N1c1ccc(Cl)cc1)N1CCCCC1 (stereo not drawn)	9.55 nM
COc1ccc(N2C(=O)c3ccccc3C2CC(=O)N2CCSC2)cc1 (stereo not drawn)	4.9 nM
O=C(CC1C2=C(SCCS2)C(=O)N1c1ccccc1)N1CCCCC1 (stereo not drawn)	7.58 nM
O=C(CC1c2ccccc2C(=O)N1c1ccc2ccc(Cl)nc2n1)N1CCCCC1 (stereo not drawn)	0.645 nM
COc1ccc(N2C(=O)c3ccc(N)cc3C2CC(=O)N2CCCCC2)cc1 (stereo not drawn)	3.8 nM
COc1ccc(N2C(=O)c3ccc(Cl)cc3C2CC(=O)N2CCN(C)CC2)cc1 (stereo not drawn)	1.99 nM
CN(Cc1ccccc1)C(=O)CC1c2ccccc2C(=O)N1c1ccccc1 (stereo not drawn)	19.5 nM
